The compound `COc1cc2nc(-c3n[nH]cc3NC(=O)N(C)C)[nH]c2cc1Cl` came in with a melting point greater than 300 °C. In the case of `O=C(O)C(=O)Nc1c(-c2ccccc2)c(=O)[nH]c2cc(Cl)ccc12`, the melting point came to 240 °C.

In turn, `CN(C(=O)c1ccc2c(c1)nc(NC(=O)c1cccs1)n2CCCO)C1CCCCC1` came in with a melting point of 105 to 107 °C. `CCCCCCCCCCCCCCCCCCOc1ccc(N(CC(=O)O)C(=O)OC(C)(C)C)cc1` gave a melting point of 89 to 92.5 °C. Regarding `Cc1noc(-c2c3cccc(-c4ccc(Cl)cc4Cl)c3nn2C)n1`, the melting point came to 178 °C. As to `Cc1ccc(S(=O)(=O)N2CCC[C@H]2C(=O)N[C@@H](Cc2ccc(NC(=S)NCCN3CCCCC3)cc2)C(=O)O)cc1`, the melting point fell in the range of 148 to 158 °C.

Turning to `Nc1nc(N)c(-c2ccc(Cl)cc2Cl)c(C=NO)n1`, the melting point is 260 to 265 °C. Take `CCOC(=O)Cn1cc(C(=O)O)c2nc3c(C)cccc3cc2c1=O`: the melting point fell in the range of 277 to 280 °C.

As for `COc1cc(Nc2c(C#N)cnc3ccc(-c4csc(C=O)c4)cc23)c(Cl)cc1Cl`, the melting point is 233 to 237 °C. As for `CC12C=CC(=O)C(N)=C1CCC1C2CCC2(C)C(=O)CCC12` (centres undefined), the figure is 162 to 169 °C. Turning to `Cc1cccc(NC(=O)NC2N=C(c3ccccc3)c3ccccc3N(C)C2=O)c1` (centres undefined), the melting point was in the range of 207 to 209 °C. `O=C1CCC(c2ccc3[nH]c(-c4ccnnc4)cc3c2)=NN1` came in with a melting point greater than 300 °C.

The compound `CSc1cc2c(cc1F)C(=O)C(=O)N2` registered a melting point of 296 °C. In the case of `CCCCCCCCC(SCCCCCC)C(=O)Nc1c(SC)nc(C)nc1SC` (centres undefined), the melting point lay within 95 to 97.5 °C.

In the case of `COc1ccc(Br)cc1O`, the melting point fell in the range of 62 to 64 °C. `CC1(C)Cc2cccc(Oc3c(Cl)cc(N)cc3Cl)c2O1` displayed a melting point of 140 to 145 °C. Turning to `O=Cc1cccc(OCc2nc(-c3ccccc3)c(-c3ccccc3)o2)c1`, the melting point lay within 72 to 75 °C.

`COC(=O)C1=C(C)NC(C)=C(/C=C/S(=O)(=O)N(C)Cc2ccccc2)C1c1cccc([N+](=O)[O-])c1` (centres undefined) showed a melting point of 208 to 210 °C. With `CCC1(CCCCl)C(=O)Nc2ccccc21` (centres undefined), the melting point is 91 to 93 °C. For `COc1ccc(C2CCN(C(=O)C(=O)NO)CC2)cc1C=C1CCCCCC1`, the melting point lay in the range of 135 to 136 °C. With `CC(C)C(NC(=O)C(Cc1ccccc1)NC(=O)c1ccc(NS(=O)(=O)c2ccc(C(C)(C)C)cc2)cc1)C(=O)Nc1n[nH]c(=S)s1` (centres undefined), the melting point was in the range of 140 to 144 °C. The same measure for `COc1cc(C(C)C)c2c(c1)S(=O)(=O)N(COC(=O)c1c(C)cc(C)cc1C)C2=O`: 137 to 138 °C. As to `COC(=O)c1ccc(Cc2c(Cl)n(C)c3cc(Cl)c(CCNC(=O)N(C)C)cc23)c(OC)c1`, the melting point was 186 to 189 °C. The compound `CNc1sccc1C(=O)c1ccccc1F` gave a melting point of 184 to 186 °C. Take `COC(=O)c1c[nH]c(=O)c2ccccc12`: the melting point is 258 to 260 °C. For the compound `O=Cc1c2n(c3ccccc13)CCNCC2`, the melting point was in the range of 167 to 168 °C. `CN(c1ccc(C(=O)O)cc1)c1cc2c3c(c1)CCCC3(C)CCC2` had a melting point of 257 to 258 °C.

Compound `ON=Cc1cn2c(cnc3ccccc32)n1` showed a melting point of 243 to 245 °C. In turn, `CSN=C1C(=O)N2C(C(=O)OC(c3ccccc3)c3ccccc3)=C(CSc3nnnn3C)CSC12` (centres undefined) had a melting point of 213 to 214 °C. For `O=C(c1cccs1)c1cnn2c(-c3cccc(-c4ccn(Cc5ccccn5)n4)c3)ccnc12`, the melting point stood at 66 °C. As for `CC(C)=CC(=O)N[C@H]1CC[C@H](CCN2CCC(c3cccc4c3CCO4)CC2)CC1`, the figure is 177 °C; as for `COc1ccc2c(c1)C(C(=O)N(Cc1ccc(OCC(F)(F)F)cc1)c1ccc(C(C)C)cc1)CCC2` (centres undefined), 125 to 127 °C.

`CC12CCC3c4ccc(O)cc4CCC3(C=C(F)F)C1CCC2O` (centres undefined) gave a melting point of 154 to 156 °C. For the compound `CCOC(=O)c1[nH]c2c(Cl)ccc(Cl)c2c1C`, the melting point was in the range of 107 to 108 °C.
